# Results as given in PMC4072787 (PLoS Pathogens, 2014).
# Entries after “also recorded” stand apart in the source; their conditions may differ. Where two headings read alike, the source gives them in different places.
# Legend:
# [1] = tested on: VEEV TC-83; test: microbe, parasite or virus in culture; format: cell-based; settings: Venezuelan equine encephalitis virus, Vero 76
# [2] = in vitro; settings: African green monkey
# [3] = tested on: VEEV V3526; test: microbe, parasite or virus in culture; format: cell-based; settings: Venezuelan equine encephalitis virus
# [4] = tested on: VEEV TC-83; test: microbe, parasite or virus in culture; format: cell-based; settings: Venezuelan equine encephalitis virus
# [5] = tested on: VEEV TC-83; test: microbe, parasite or virus in culture; format: cell-based; settings: Venezuelan equine encephalitis virus, Vero 76, read-out: IC50 against TC-83 1º
# [6] = mouse, in vivo
# [7] = tested on: VACV-LREV; test: microbe, parasite or virus in culture; format: cell-based, vaccinia virus (western reserve)
# [8] = in vitro; settings: microsomes
# [9] = microsomes
# [10] = tested on: VEEV TrD; format: cell-based, Venezuelan equine encephalitis virus
# [11] = in vitro; settings: PAMPA
# [12] = tested on: VEEV TC-83 RNA; format: cell-based, Venezuelan equine encephalitis virus
# [13] = tested on: VEEV TC-83; format: cell-based, Venezuelan equine encephalitis virus
# [14] = tested on: VEEV TrD; test: microbe, parasite or virus in culture; format: cell-based; settings: Venezuelan equine encephalitis virus
# [15] = in vitro; settings: dog, MDCK-MDR1
# [16] = tested on: MDR1; test: in vitro; settings: dog, MDCK-MDR1
# [17] = tested on: VSV-EGFP; test: microbe, parasite or virus in culture; format: cell-based, vesicular stomatitis virus
# [18] = tested on: Ebola virus (Zaire)-GFP; test: microbe, parasite or virus in culture; format: cell-based
# [19] = tested on: VEEV TC-83; format: cell-based, Venezuelan equine encephalitis virus; remark: listed apart in the source
# [20] = tested on: VEEV TC-83 proteins; format: cell-based, Venezuelan equine encephalitis virus
# [21] = in vitro; settings: mouse; for fraction unbound: plasma
# [22] = physchem
# [23] = tested on: RSV (strain Long); test: microbe, parasite or virus in culture; format: cell-based, human respiratory syncytial virus
# [24] = in vitro; settings: mouse, plasma
# [25] = tested on: VEEV TC-83; format: cell-based, Venezuelan equine encephalitis virus; remark: listed apart in the source
# [26] = in vivo; settings: mouse, ip
# [27] = tested on: EEEV strain FL91; test: microbe, parasite or virus in culture; format: cell-based, Eastern equine encephalitis virus
# [28] = 16 hr.
# [29] = tested on: CHIKV; test: microbe, parasite or virus in culture; format: cell-based, Chikungunya virus
# [30] = tested on: WEEV (VR-70); test: microbe, parasite or virus in culture; format: cell-based; settings: Western equine encephalitis virus, Vero, 72 h, read-out: Antiviral Activity (IC50), WEEV
# [31] = tested on: VEEV TC-83; settings: mouse, in vivo; cited from earlier work
# [32] = Vero 76, read-out: IC50 against TC-83 2º
compound,measurement,setting,value
O=C(Cc1cccs1)Nc1nc2c(s1)CCCC2 [compound 847035],inhibition at 20 µM,[1],27.8%
same,CC50,[2],> 25 µM
same,IC50,[3]; read-out: IC50 against V3526,7.09 µM
same,IC50,[4]; [32],4.71 µM
same,IC50,[5],6.38 µM
Clc1ccc2nnnc(-c3ccccc3)c2c1 [compound 902491],inhibition at 20 µM,[1],42.1%
same,CC50,[2],> 25 µM
same,IC50,[3]; read-out: IC50 against V3526,6.12 µM
same,IC50,[4]; [32],3.45 µM
same,IC50,[5],9.71 µM
CCN1CCN(Cc2nc3ccc([N+](=O)[O-])cc3c(=O)n2-c2ccccc2F)CC1 [CID15997213],"Acute toxicity, clinical signs",[6],no acute toxicity
same,"Toxicity (body weight loss, adverse effects)",[6],No apparent toxicity
same,"Antiviral Activity (IC50), VACV-LREV",[7],No antiviral activity
same,IC50,"[7]; Vaccinia virus Western Reserve, A549, 18 h, read-out: Antiviral Activity (IC50), VACV-LREV",> 20 µM
same,microsomal CLint,[8],31.4 µL/min/mg
same,inhibition at 20 µM,[1],73%
same,microsomal stability,[9],good
same,CC50,[2],> 25 µM
same,Progeny virus in titer reduction assay,[10],No progeny virus was detected
same,Papp,[11],42 ×10⁻⁶ cm/s
same,Reduction in viral RNA levels as compared to the control,[12],"> 8,000 fold"
same,Plaque formation,[13],no visible plaques
same,IC50,"[14]; N2a, read-out: Antiviral Activity (IC50), VEEV TrD",0.48 µM
same,IC50,"[14]; Vero 76, read-out: Antiviral Activity (IC50), VEEV TrD",0.38 µM
same,IC50,"[14]; read-out: IC50, VEEV TrD",0.36 to 0.48 µM
same,Papp A→B,[15],7.2 ×10⁻⁶ cm/s
same,Papp B→A,[15],38.5 ×10⁻⁶ cm/s
same,efflux ratio,[16],5.3
same,"Antiviral Activity (IC50), VSV-EGFP",[17],No antiviral activity
same,IC50,"[17]; Vesicular stomatitis virus, A549, 18 h, read-out: Antiviral Activity (IC50), VSV-EGFP",> 20 µM
same,"Antiviral Activity (IC50), Ebola virus (Zaire)-GFP",[18],No antiviral activity
same,IC50,"[18]; Zaire ebolavirus, HeLa, 24 h, read-out: Antiviral Activity (IC50), Ebola virus (Zaire)-GFP",> 10 µM
same,"Virus production still occurring, of the maximum",[19],90%
same,Viral protein level (western blot),[20],dramatic decrease in viral protein level; also recorded: not able to detect viral proteins
same,IC50,"[3]; read-out: Antiviral Activity (IC50), VEEV V3526",0.67 µM
same,IC50,"[3]; read-out: IC50, V3526",0.32 µM
same,IC50,[3]; read-out: IC50 against V3526,1.01 µM
same,recovery,[21],89%
same,fraction unbound,[21]; Mean plasma fraction bound,0.324
same,fraction unbound,[21]; Mean plasma fraction unbound,0.324
same,fraction unbound,[21]; protein binding,0.68
same,solubility,[22],> 100 µM
same,"Antiviral Activity (IC50), RSV",[23],No antiviral activity
same,IC50,"[23]; human respiratory syncytial virus, HEp-2, 120 h, read-out: Antiviral Activity (IC50), RSV",> 50 µM
same,half-life,[24],> 4 h
same,Progeny virus in titer reduction assay,[25],No progeny virus was detected
same,IC50,[4]; [32],1.3 µM
same,IC50,"[4]; read-out: IC50, VEEV TC-83",0.84 µM
same,MTD,[26],≥ 800 mg/kg
same,"Antiviral Activity (IC50), EEEV",[27],no activity
same,IC50,"[27]; Eastern equine encephalitis virus, Vero, 40 h, read-out: Antiviral Activity (IC50), EEEV",> 20 µM
same,Aqueous solubility,[28],>100 µM
same,IC50,[5],1.91 µM
same,"Antiviral Activity (IC50), CHIKV",[29],not inhibited
same,IC50,"[29]; Chikungunya virus, 72 h, read-out: Antiviral Activity (IC50), CHIKV",> 50 µM
same,IC50,[30],10 µM
(−)-carbodine,Survival,[31],50%
O=C(Oc1ccc2ccccc2c1Br)N1CCCCCC1 [compound 2928803],inhibition at 20 µM,[1],42.8%
same,CC50,[2],> 25 µM
same,IC50,[3]; read-out: IC50 against V3526,> 50 µM
same,IC50,[4]; [32],> 50 µM
same,IC50,[5],4.26 µM
CCOC(=O)c1ccc(Nc2nc(=O)c3cccnc3s2)cc1 [compound 1259240],inhibition at 20 µM,[1],49%
same,CC50,[2],> 25 µM
same,IC50,[3]; read-out: IC50 against V3526,10.8 µM
same,IC50,[4]; [32],7.07 µM
same,IC50,[5],6.32 µM
O=c1nc(Nc2ccc(OCc3ccccc3)cc2)sc2ncccc12 [compound 1258664],inhibition at 20 µM,[1],63.2%
same,CC50,[2],> 25 µM
same,IC50,[3]; read-out: IC50 against V3526,3.67 µM
same,IC50,[4]; [32],2.38 µM
same,IC50,[5],2.86 µM
